Source: US20250188041A1, “NEW COMPOUNDS AND TREATMENT OF RENAL CELL CARCINOMA” (Trustlife Global Inc., priority 2022, published 2025)
Entries after “also recorded” stand apart in the source; their conditions may differ. *1 amine or outer side, *2 acyl side, *3 side chain or, on linkers, in order; H or OH if unused. Where a SMILES comes first, the peptide text is derived from it. Bridges are numbered along the chain shown (N, C = ends). Roman numbers before positions name the chains, in order. [ ]: non-standard residue; d: D form. Actinocin(9to1) = Cc1c2oc3c(C)ccc(C(=O)[*:1])c3nc-2c(C(=O)[*:2])c(N)c1=O; NMeV = CN[C@H](C(=O)O)C(C)C; Sar = CNCC(=O)O

Key:
Format in all cases: cell-based, Human
RRM2 = test: Western blot, RRM2 protein level in Caki-1 treated with repurposed drugs; conditions: 24 h, vs DMSO control
Procedure: (§1) Cell culture 1: Human clear cell renal cell carcinoma (ccRCC) cell line Caki-1 was obtained from the Karolinska Institute of Environmental Medicine, Stockholm, Sweden, derived from a ccRCC patient. The cells were cultured in RPMI 1640 medium with 10% fetal bovine serum (FBS) and 1% penicillin/streptomycin. The cells were cultivated at 37° C. in a humidified incubator with 5% CO2. TG-101209, NVP-TAE684, MK-0752, actinomycin-d, and panobinostat were purchased from Selleckchem ([…], […], […], […], […], Selleckchem, Houston, TX, USA), and withaferin-a was purchased from Sigma (W4394, Sigma-Aldrich, Saint Louis, MO, USA). These drugs were dissolved in DMSO. The cells (from cell culture 1) were seeded in a 96-well plate at 20×10^3 cells per well. After seeding for 24 h, the cells were treated for 24 h with the target drugs: TG-101209 (6 nM), NVP-TAE684 (3 nM), MK-0752 (5 nM), withaferin-a (4 uM), actinomycin-d (0.3 nM), and panobinostat (5 nM). The cells in the negative control group were only treated by DMSO for one day. The cells were washed with phosphate-buffered saline (PBS) and lysed with CelLytic M ([…], Sigma-Aldrich, Saint Louis, MO, USA) lysis buffer containing protease inhibitors. The lysates were centrifuged at 12 000 rpm for 5 min, and the supernatant was collected. The proteins were separated by Mini-PROTEAN® TGXTM Precast Gels (BioRad, Berkeley, CA, USA) and transferred to a Trans-Blot Turbo Mini 0.2 um PVDF Transfer Packs membrane (BioRad, Berkeley, CA, USA) by using Trans-Blot® TurboTM Transfer System (Bio-Rad, Berkeley, CA, USA). The antibodies for BUB1B (HPA008419), RRM2 (HPA056994), CEP55 (HPA023430), ASF1B(HPA069385), CCNB2 (HPA008873), and GAPDH (sc47724, Santa Cruz Biotechnology, Inc.) were used for primary immunoblotting. All the antibodies were diluted at 1:10000 concentration. The membranes were incubated in primary antibody solution overnight at 4° C. with gentle rocking. […] The protein bands were detected with ImageQuanattm LAS 500 (29-0050-63, GE) automatic exposure procedure or 6 min exposure.

Caki-1 = test: CCK-8 cell viability assay of drug-treated Caki-1; conditions: 24 h, vs DMSO control
Procedure: Cell culture 1: Human clear cell renal cell carcinoma (ccRCC) cell line Caki-1 was obtained from the Karolinska Institute of Environmental Medicine, Stockholm, Sweden, derived from a ccRCC patient. The cells were cultured in RPMI 1640 medium with 10% fetal bovine serum (FBS) and 1% penicillin/streptomycin. The cells were cultivated at 37° C. in a humidified incubator with 5% CO2. TG-101209, NVP-TAE684, MK-0752, actinomycin-d, and panobinostat were purchased from Selleckchem ([…], […], […], […], […], Selleckchem, Houston, TX, USA), and withaferin-a was purchased from Sigma (W4394, Sigma-Aldrich, Saint Louis, MO, USA). These drugs were dissolved in DMSO. The cells (from cell culture 1) were seeded in a 96-well plate at 20×10^3 cells per well. After seeding for 24 h, the cells were treated for 24 h with the target drugs: TG-101209 (6 nM), NVP-TAE684 (3 nM), MK-0752 (5 nM), withaferin-a (4 uM), actinomycin-d (0.3 nM), and panobinostat (5 nM). The cells in the negative control group were only treated by DMSO for one day. Cell proliferation was detected by Cell Counting Kit-8 (CCK-8) assay. The 10 μl of CCK-8 reagent (1:10) was added to each well of 96-well plate with siRNA transfected cells or drug-treated cells by manufacturer's instruction. The 96-well plate was incubated at 37° C. for 2 hours and then measured absorbance at 450 nm using a microplate reader (Hidex Sense Beta Plus).

Caki-1 cells = test: MTT cell viability assay of Caki-1 treated with TG-101209 and its alternatives
Procedure: (§2) Cell culture 2: Caki-1 was purchased from CLS Cell Lines Service (Germany). The cells were maintained in McCoy's SA (modified) medium (16600082, Thermo Fisher Scientific, USA) and supplemented with 10% fetal bovine serum (FBS, F7524, Sigma-Aldrich), 1% Penicillin/Streptomycin (P4333, Sigma-Aldrich).
The cytotoxic effects of the TG-101209 and its alternatives on the Caki-1 cells were tested by MTT (Thiazolyl Blue Tetrazolium Bromide) method. 1.5×10^4 cells were seeded per well in a 96-well plate in 100 μL growth media. […] After the incubation period, 5 mg/ml MTT (M2128, Sigma-Aldrich) solution in PBS (10 μL) was added to each well. After 1 hour, the MTT solution and all media were removed from the wells. 100 μl of DMSO was added and mixed to dissolve the formazan crystals. Cell viability was analysed by measuring the absorbance of the dissolved formazan at a wavelength of 570 nm with a microplate reader (Hidex Sense Beta Plus).

BUB1B [1] = test: Western blot, BUB1B expression in Caki-1 treated with TG-101209 alternatives; conditions: Caki-1, 5 μM of target drug, 1 day (FIG. 41; method says 2 days)
Procedure: as §2
The target drugs developed as alternatives to TG-101209, were dissolved in 0.1% DMSO (41639, Sigma-Aldrich). Caki-1 cells from cell culture 2 were seeded in a 6-well plate at 3×10^5 cells per well. […]
The cells were washed with PBS solution and then lysed with CelLytic M (C2978, Sigma-Aldrich) lysis buffer containing protease inhibitors (11836170001, Roche). The cell lysates were centrifuged at 12 000 rpm for 10 min and supernatants were collected. Protein Assay Dye Reagent (5000006, Bio-Rad) was used for the determination of protein concentration. The absorbance of the proteins was measured spectrophotometrically at 595 nm by a microplate reader (Hidex Sense Beta Plus). Protein electrophoresis was performed using Mini-PROTEAN® TGX™ Precast Gels (4561086, Bio-Rad) and then the separated proteins were transferred to a Trans-Blot Turbo Mini 0.2 um PVDF Transfer Packs membrane (1704158, Bio-Rad) by using Trans-Blot® Turbo™ Transfer System (Bio-Rad). The membrane was blocked with 5% skim milk for 30 min at 4° C. with gentle rocking. After blocking, the membrane was treated with primary antibodies: Anti-BUB1B (HPA008419, Human Protein Atlas, Sweden) and Anti-Beta actin (ab8227, Abcam) as a loading control overnight at 4° C. on a rocking platform. After the treatment of primary antibodies, the membrane was washed three times with TBS-T buffer (A09-7500-100, Medicago). Then, Goat anti-Rabbit IgG-HRP (ab205718, Abcam) was treated as the secondary antibody for 30 min at 4° C. with gentle rocking.

BUB1B [2] = test: Western blot, BUB1B protein level in Caki-1 treated with repurposed drug; conditions: Caki-1, 6 nM, 24 h, compared to negative control (DMSO)
Procedure: as §1, with “inhibitors.” for “inhibitors. The lysates were centrifuged at 12 000 rpm for 5 min, and the supernatant was collected. The proteins were separated by Mini-PROTEAN® TGXTM Precast Gels (BioRad, Berkeley, CA, USA) and transferred to a Trans-Blot Turbo Mini 0.2 um PVDF Transfer Packs membrane (BioRad, Berkeley, CA, USA) by using Trans-Blot® TurboTM Transfer System (Bio-Rad, Berkeley, CA, USA). The antibodies for BUB1B (HPA008419), RRM2 (HPA056994), CEP55 (HPA023430), ASF1B(HPA069385), CCNB2 (HPA008873), and GAPDH (sc47724, Santa Cruz Biotechnology, Inc.) were used for primary immunoblotting. All the antibodies were diluted at 1:10000 concentration. The membranes were incubated in primary antibody solution overnight at 4° C. with gentle rocking.”

COc1cc(N2CCC(N3CCN(C)CC3)CC2)ccc1Nc1ncc(Cl)c(Nc2ccccc2S(=O)(=O)C(C)C)n1 [NVP-TAE684]
protein level of RRM2 (RRM2; Caki-1, 3 nM): significantly suppressed
cell viability (Caki-1; Caki-1, CCK-8, 3 nM): significantly reduced

Cc1cnc(Nc2ccc(N3CCN(C)CC3)cc2)nc1Nc1cccc(S(=O)(=O)NC(C)(C)C)c1 [TG-101209, reference compound]
cell viability (MTT assay) (Caki-1 cells; Caki-1, 10 μM, 1 day): most profound effect on the cell viability
IC50 (Caki-1 cells; FIG. 43, assay not named, presumably Caki-1 cell viability): ~3000 nM
Ranking, Cell viability (%) (Caki-1 cells; top five target drugs, MTT assay, 10 μM, 1 day, rank 1 = greatest reduction): 5
expression levels of BUB1B (BUB1B [1]): significantly lower the expression levels of BUB1B
protein level of BUB1B (BUB1B [2]): significantly decreased; also recorded: significantly reduced
cell viability (Caki-1; Caki-1, CCK-8, 6 nM): significantly reduced

Cc1c2oc3c(C)ccc(C(=O)N[C@@H]4C(=O)N[C@H](C(C)C)C(=O)N5CCC[C@H]5C(=O)N(C)CC(=O)N(C)[C@@H](C(C)C)C(=O)O[C@@H]4C)c3nc-2c(C(=O)N[C@@H]2C(=O)N[C@H](C(C)C)C(=O)N3CCC[C@H]3C(=O)N(C)CC(=O)N(C)[C@@H](C(C)C)C(=O)O[C@@H]2C)c(N)c1=O [actinomycin-d] (I: T[dV]P[Sar][NMeV] / II: T[dV]P[Sar][NMeV]; ester I:1-I:C, II:1-II:C; linker I:N-II:N via Actinocin(9to1))
protein level of RRM2 (RRM2; Caki-1, 0.3 nM): does not work for inhibiting RRM2

CC1=C(CO)C(=O)O[C@@H]([C@@H](C)[C@H]2CC[C@H]3[C@@H]4C[C@H]5O[C@]56[C@@H](O)C=CC(=O)[C@]6(C)[C@H]4CC[C@]23C)C1 [withaferin-a]
protein level of RRM2 (RRM2; Caki-1, 4 uM): significantly suppressed
cell viability (Caki-1; Caki-1, CCK-8, 4 uM): significantly reduced
